From the supplement of paper PMC10307832 come the findings set out here.

What all share (test): relative viability (nuclei count vs DMSO), 5 days (fraction); higher = more cells survive
Compound in the test “Venetoclax + Pemetrexed”: CC1(C)CCC(CN2CCN(c3ccc(C(=O)NS(=O)(=O)c4ccc(NCC5CCOCC5)c([N+](=O)[O-])c4)c(Oc4cnc5[nH]ccc5c4)c3)CC2)=C(c2ccc(Cl)cc2)C1 [Venetoclax] + Nc1nc2[nH]cc(CCc3ccc(C(=O)N[C@@H](CCC(=O)O)C(=O)O)cc3)c2c(=O)[nH]1 [Pemetrexed] (partner 0.2 µM)
In short, it runs like this:
(§1)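 Cells from lung cancer lines were seeded into 1536-well plates and, one day later, dosed by pin tool. Treatments were either a single drug or a fixed dose of an anchor drug with five library-drug doses (not always all listed) in √10 steps. After 5 days, nuclei were stained in a one-step fixation (final 0.05% Triton X-100, 1% formaldehyde, 1 ug/ml Hoechst) and counted on 4× images, and relative viability is the treated-to-vehicle nuclei ratio, as the median of duplicate plates.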

Compound in the test “Selumetinib + Phenformin”: Cn1cnc2c(F)c(Nc3ccc(Br)cc3Cl)c(C(=O)NOCCO)cc21 [Selumetinib] + N=C(N)NC(=N)NCCc1ccccc1 [Phenformin] (partner 250 µM)
In short, it runs like this: as §1

Compound in the test “Venetoclax + Bortezomib”: CC1(C)CCC(CN2CCN(c3ccc(C(=O)NS(=O)(=O)c4ccc(NCC5CCOCC5)c([N+](=O)[O-])c4)c(Oc4cnc5[nH]ccc5c4)c3)CC2)=C(c2ccc(Cl)cc2)C1 [Venetoclax] + CC(C)C[C@H](NC(=O)[C@H](Cc1ccccc1)NC(=O)c1cnccn1)B(O)O [Bortezomib] (partner 0.002 µM)
In short, it runs like this:
as §1

Compound in the test “Venetoclax + Navitoclax”: CC1(C)CCC(CN2CCN(c3ccc(C(=O)NS(=O)(=O)c4ccc(NCC5CCOCC5)c([N+](=O)[O-])c4)c(Oc4cnc5[nH]ccc5c4)c3)CC2)=C(c2ccc(Cl)cc2)C1 [Venetoclax] + CC1(C)CCC(c2ccc(Cl)cc2)=C(CN2CCN(c3ccc(C(=O)NS(=O)(=O)c4ccc(N[C@H](CCN5CCOCC5)CSc5ccccc5)c(S(=O)(=O)C(F)(F)F)c4)cc3)CC2)C1 [Navitoclax] (partner 0.5 µM)
The method in brief:
as §1

Consider PC-3 [JPC-3], for which the relative viability with Venetoclax + Pemetrexed (first compound 0.01 µM) amounted to 1.05; with Venetoclax + Pemetrexed (first compound 0.03162 µM) it was 1.45; with Venetoclax + Pemetrexed (first compound 0.1 µM) it was 1.18; with Venetoclax + Pemetrexed (first compound 0.3162 µM) it was 1.26; with Venetoclax + Pemetrexed (first compound 1 µM), 1.01; with Selumetinib + Phenformin (first compound 0.02 µM), 0.446. Moreover, the relative viability was 0.489 in the test with Selumetinib + Phenformin (first compound 0.06325 µM); 0.473 in the test with Selumetinib + Phenformin (first compound 0.2 µM); 0.414 with Selumetinib + Phenformin (first compound 0.6325 µM); 0.764 in the test with Venetoclax + Bortezomib (first compound 0.01 µM); 0.822 with Venetoclax + Bortezomib (first compound 0.03162 µM); 0.794 with Venetoclax + Bortezomib (first compound 0.1 µM). The relative viability came out at 0.771 with Venetoclax + Bortezomib (first compound 0.3162 µM); 0.829 with Venetoclax + Bortezomib (first compound 1 µM); 0.832 in the test with Venetoclax + Navitoclax (first compound 0.01 µM); 0.785 with Venetoclax + Navitoclax (first compound 0.03162 µM); 0.78 with Venetoclax + Navitoclax (first compound 0.1 µM); 0.829 with Venetoclax + Navitoclax (first compound 0.3162 µM). The relative viability with Venetoclax + Navitoclax (first compound 1 µM) was found to be 0.744.

On to PC-14, for which the relative viability turned out to be 0.154 with Venetoclax + Pemetrexed (first compound 0.01 µM); 0.135 in the test with Venetoclax + Pemetrexed (first compound 0.03162 µM); 0.13 with Venetoclax + Pemetrexed (first compound 0.1 µM); 0.14 with Venetoclax + Pemetrexed (first compound 0.3162 µM); 0.143 with Venetoclax + Pemetrexed (first compound 1 µM); 0.516 with Selumetinib + Phenformin (first compound 0.02 µM). Further, the relative viability stood at 0.507 with Selumetinib + Phenformin (first compound 0.06325 µM); 0.529 with Selumetinib + Phenformin (first compound 0.2 µM); 0.447 in the test with Selumetinib + Phenformin (first compound 0.6325 µM); 0.765 with Venetoclax + Bortezomib (first compound 0.01 µM); 0.939 with Venetoclax + Bortezomib (first compound 0.03162 µM); 0.843 with Venetoclax + Bortezomib (first compound 0.1 µM). Further, the relative viability with Venetoclax + Bortezomib (first compound 0.3162 µM) is 0.839; in the test with Venetoclax + Bortezomib (first compound 1 µM), 0.789; with Venetoclax + Navitoclax (first compound 0.01 µM), 0.986; with Venetoclax + Navitoclax (first compound 0.03162 µM), 1.03; in the test with Venetoclax + Navitoclax (first compound 0.1 µM), 0.936; with Venetoclax + Navitoclax (first compound 0.3162 µM), 0.954. In addition, the relative viability with Venetoclax + Navitoclax (first compound 1 µM) was 0.926.

For the cell line RERF-LC-KJ, the relative viability with Venetoclax + Pemetrexed (first compound 0.01 µM) was found to be 0.473; with Venetoclax + Pemetrexed (first compound 0.03162 µM), 0.487; in the test with Venetoclax + Pemetrexed (first compound 0.1 µM), 0.45; with Venetoclax + Pemetrexed (first compound 0.3162 µM) it was 0.438; with Venetoclax + Pemetrexed (first compound 1 µM), 0.506; with Selumetinib + Phenformin (first compound 0.02 µM), 0.368. The relative viability was 0.388 in the test with Selumetinib + Phenformin (first compound 0.06325 µM); 0.422 with Selumetinib + Phenformin (first compound 0.2 µM); 0.395 with Selumetinib + Phenformin (first compound 0.6325 µM); 1.08 with Venetoclax + Bortezomib (first compound 0.01 µM); 1.31 in the test with Venetoclax + Bortezomib (first compound 0.03162 µM); 1.19 in the test with Venetoclax + Bortezomib (first compound 0.1 µM). Besides, the relative viability with Venetoclax + Bortezomib (first compound 0.3162 µM) is 1.22; with Venetoclax + Bortezomib (first compound 1 µM) it was 1.05; with Venetoclax + Navitoclax (first compound 0.01 µM) it was 0.994; with Venetoclax + Navitoclax (first compound 0.03162 µM), 0.961; with Venetoclax + Navitoclax (first compound 0.1 µM) it was 0.794; in the test with Venetoclax + Navitoclax (first compound 0.3162 µM) it was 1.08. Also, in the test with Venetoclax + Navitoclax (first compound 1 µM), the relative viability is 0.89.

As for SK-LU-1, the relative viability was 0.97 with Venetoclax + Pemetrexed (first compound 0.01 µM); 1.05 with Venetoclax + Pemetrexed (first compound 0.03162 µM); 1.03 with Venetoclax + Pemetrexed (first compound 0.1 µM); 0.966 with Venetoclax + Pemetrexed (first compound 0.3162 µM); 0.867 in the test with Venetoclax + Pemetrexed (first compound 1 µM); 0.536 with Selumetinib + Phenformin (first compound 0.02 µM). Also, the relative viability in the test with Selumetinib + Phenformin (first compound 0.06325 µM) came out at 0.484; with Selumetinib + Phenformin (first compound 0.2 µM) it was 0.505; with Selumetinib + Phenformin (first compound 0.6325 µM), 0.239; with Venetoclax + Bortezomib (first compound 0.01 µM), 0.937; with Venetoclax + Bortezomib (first compound 0.03162 µM), 1.19; with Venetoclax + Bortezomib (first compound 0.1 µM), 1.24. For the same cell line, the relative viability with Venetoclax + Bortezomib (first compound 0.3162 µM) was determined as 1.34; in the test with Venetoclax + Bortezomib (first compound 1 µM) it was 1.08; with Venetoclax + Navitoclax (first compound 0.01 µM), 0.502; with Venetoclax + Navitoclax (first compound 0.03162 µM) it was 0.994; with Venetoclax + Navitoclax (first compound 0.1 µM) it was 0.945; in the test with Venetoclax + Navitoclax (first compound 0.3162 µM), 0.729. For the same cell line, in the test with Venetoclax + Navitoclax (first compound 1 µM), the relative viability amounted to 0.804.

In the case of SW 1573, the relative viability with Venetoclax + Pemetrexed (first compound 0.01 µM) is 0.784; with Venetoclax + Pemetrexed (first compound 0.03162 µM) it was 0.808; with Venetoclax + Pemetrexed (first compound 0.1 µM), 0.784; in the test with Venetoclax + Pemetrexed (first compound 0.3162 µM), 0.843; in the test with Venetoclax + Pemetrexed (first compound 1 µM), 0.846; with Selumetinib + Phenformin (first compound 0.02 µM) it was 0.291. The relative viability with Selumetinib + Phenformin (first compound 0.06325 µM) turned out to be 0.275; in the test with Selumetinib + Phenformin (first compound 0.2 µM), 0.276; in the test with Selumetinib + Phenformin (first compound 0.6325 µM) it was 0.212; with Venetoclax + Bortezomib (first compound 0.01 µM) it was 0.983; with Venetoclax + Bortezomib (first compound 0.03162 µM) it was 1.06; in the test with Venetoclax + Bortezomib (first compound 0.1 µM), 1.02. Also, the relative viability came out at 1.18 in the test with Venetoclax + Bortezomib (first compound 0.3162 µM); 0.997 with Venetoclax + Bortezomib (first compound 1 µM); 0.877 with Venetoclax + Navitoclax (first compound 0.01 µM); 1.02 in the test with Venetoclax + Navitoclax (first compound 0.03162 µM); 0.971 with Venetoclax + Navitoclax (first compound 0.1 µM); 1.03 in the test with Venetoclax + Navitoclax (first compound 0.3162 µM). Moreover, in the test with Venetoclax + Navitoclax (first compound 1 µM), the relative viability came to 0.997.
